Data: patent US7888042B2, “Methods for identifying insulin mimetics” (Ohio University, priority 2005, dated 2011)

Assays:
Type in all cases: cell-based
3T3-L1 adipocytes [1] = experiment: Glucose uptake assay in 3T3-L1 adipocytes
Experimental: Chemical synthesis yields both the α- and β-anomers of PGG. (B) Glucose transport stimulatory activity (13, 14) of PGG was assessed by incubating adipocytes in 6-well plates with insulin or PGG for 15 min followed by the addition of [^3H]-2-deoxy-D-glucose for 10 min before quantifying uptake (13, n=3, mean±SD, Two way-ANOVA, * P<0.05; ** P<0.01). α-PGG (●); β-PGG (□); insulin (∘). (C) Glucose transport induced by insulin in the presence of α-PGG. One […] of insulin was added to adipocytes in the presence of increasing amounts of α-PGG. After induction, radioactive glucose was added, and the glucose taken up by the cells was counted.
Reagents, compound synthesis, and glucose uptake assay. Bovine insulin was purchased from Sigma. PGG, in an approximate 1:1 mixture of α- and β-PGG, was synthesized from glucose in the non-radioactive form as described (22). The identity of the compounds was confirmed by MS and NMR. The compounds were dissolved in double distilled water (ddH2O), filter sterilized, and stored as a 10 mM aqueous stock solution at −20° C. The stock solutions were diluted to final concentrations with sterile ddH2O. Glucose uptake assays in 3T3-L1 adipocytes induced by PGG were performed as described (13).

3T3-L1 adipocytes [2] = experiment: Glucose uptake assay with insulin signaling pathway inhibitors; conditions: inhibitor added along with α-PGG
Experimental: (§1) (A) Glucose transport was measured by determining [^3H]-2-deoxyglucose uptake stimulated by either insulin or α-PGG in 3T3-L1 cells in the presence or absence of HNMPA-(AM)3, an inhibitor of IR tyrosine kinase activity (24); wortmannin, an inhibitor of PI 3-kinase (25), or cytochalasin B, an inhibitor of GLUT4 (26), (n=4, mean±SD). (B) Cells were induced by 20 or 40 μM α-PGG or 100 nM insulin for 15 min. Cell lysates were separated by PAGE and analyzed for phosphorylation of IR (in CHO-IR cells) or Akt (in adipocytes) using antibodies specific to the target proteins. (C) Cells were treated with α-PGG and insulin in a fashion similar to (B) and assayed for their respective PI-3 kinase activity with a radioactive TLC method (27). (D) In similar experiments, intact cells were analyzed by confocal microscopy for translocation of GLUT4 using anti-GLUT4 antibodies.
Insulin signaling pathway study with inhibitors. To identify the signaling pathway and its potential protein target for PGG's glucose transport activity, three inhibitors to the insulin signaling pathway were selected. […] Inhibitors were individually added to the 3T3-L1 adipocytes along with either α-PGG or insulin at predetermined concentrations during glucose uptake assays, and the inhibition was measured by the glucose taken in by the cell samples treated with or without inhibitors.

GLUT4 = GLUT4 translocation, confocal microscopy; conditions: adipocytes, 37° C., 15 min
Experimental: as §1
Protein phosphorylation/activation and GLUT4 translocation. To investigate signal transduction induced by α-PGG, proteins from 3T3-L1 adipocytes or CHO-IR cells (23), which were treated with α-PGG or insulin for 15 min, were isolated, separated by PAGE, blotted on nylon membranes, and analyzed by Western blotting with antibodies against either IR or Akt. […]

Compound: O=C(OC[C@H]1O[C@@H](OC(=O)c2cc(O)c(O)c(O)c2)[C@H](OC(=O)c2cc(O)c(O)c(O)c2)[C@@H](OC(=O)c2cc(O)c(O)c(O)c2)[C@@H]1OC(=O)c1cc(O)c(O)c(O)c1)c1cc(O)c(O)c(O)c1 [β-PGG]
- induction of glucose transport (3T3-L1 adipocytes [1]; 3T3-L1 adipocytes, [3H]-2-deoxy-D-glucose uptake, 15 min incubation): induced glucose transport in adipocytes in a dose-dependent manner

Compound: C=C1[C@@H](C)[C@H]2[C@H](Cc3ccccc3)NC(=O)[C@]23OC(=O)/C=C/[C@H](O)CCC[C@@H](C)C/C=C/[C@H]3[C@@H]1O [cytochalasin B]
- glucose transport activity induced by α-PGG in presence of inhibitor (3T3-L1 adipocytes [2]): completely abolished

Compound: O=C(OC[C@H]1OC(OC(=O)c2cc(O)c(O)c(O)c2)[C@H](OC(=O)c2cc(O)c(O)c(O)c2)[C@@H](OC(=O)c2cc(O)c(O)c(O)c2)[C@@H]1OC(=O)c1cc(O)c(O)c(O)c1)c1cc(O)c(O)c(O)c1 (stereo partly drawn) [PGG, 1,2,3,4,6-penta-O-galloyl-D-glucose]
- mode of action at IR for glucose transport activity (3T3-L1 adipocytes [1]): partial agonist

Compound: insulin: Bovine insulin purchased from Sigma
- GLUT4 translocation (GLUT4): translocated to the plasma membrane
